Test results taken from US10774064B2 (Cadent Therapeutics, Inc., priority 2016, dated 2020).

target: T1, small-conductance Ca2+-activated K+ channels (SK channels, subtype 2) (Homo sapiens, UniProt Q9H2S1); assay: whole-cell patch-clamp of ionic current through SK2 channels in HEK293 cells (SC100); type: cell-based; conditions: concentration that increases the basal current by 100%; HEK293 cells expressing SK2 channels
T1 construct: expressed in transfected cells; host or cells: HEK293
How it was run: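 Whole-cell patch-clamp recording of current in HEK293 cells expressing SK2 channels. SC100 is the compound concentration that increases basal current by 100%.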

| SC100 | SMILES |
| --- | --- |
| ++ (++ means 200 nM-1000 nM) | Cc1cc(NC2CCC(F)(F)CC2)nc(-n2ccc(C(F)(F)F)n2)n1 [Compound 200, N-(4,4-difluorocyclohexyl)-6-methyl-2-(3-(trifluoromethyl)-1H-pyrazol-1-yl)pyrimidin-4-amine] |
| ++ (++ means 200 nM-1000 nM) | Cc1cc(C)n(-c2nc(NC3CCC(F)(F)CC3)cc(N3CCO[C@@H](CO)C3)n2)n1 (single isomer, unassigned) [Compound 112, (+)-(4-(6-((4,4-difluorocyclohexyl)amino)-2-(3,5-dimethyl-1H-pyrazol-1-yl)pyrimidin-4-yl)morpholin-2-yl)methanol] |
| ++ (++ means 200 nM-1000 nM) | CC(C)OC(=O)N1CC(Oc2cc(NC3CCC(F)(F)CC3)nc(-n3ccc(CF)n3)n2)C1 [Compound 296, isopropyl3-((6-((4,4-difluorocyclohexyl)amino)-2-(3-(fluoromethyl)-1H-pyrazol-1-yl)pyrimidin-4-yl)oxy)azetidine-1-carboxylate] |
| + (+ means >1 uM) | Cc1cc(C)n(-c2cccc(N(C)C3CCC(F)(F)CC3)n2)n1 [Compound 166, N-(4,4-difluorocyclohexyl)-6-(3,5-dimethyl-1H-pyrazol-1-yl)-N-methylpyridin-2-amine] |
| ++ (++ means 200 nM-1000 nM) | Cc1cc(C)n(-c2cc(C(F)(F)F)cc(NC3CCC(F)(F)CC3)n2)n1 [Compound 170, N-(4,4-difluorocyclohexyl)-6-(3,5-dimethyl-1H-pyrazol-1-yl)-4-(trifluoromethyl)pyridin-2-amine] |
| ++ (++ means 200 nM-1000 nM) | CC(C)(C)C(=O)N1CC(Oc2cc(NC3CCC(F)(F)CC3)nc(-c3nc(C(F)(F)F)cs3)n2)C1 [Compound 322, 1-(3-((6-((4,4-difluorocyclohexyl)amino)-2-(4-(trifluoromethyl)thiazol-2-yl)pyrimidin-4-yl)oxy)azetidin-1-yl)-2,2-dimethylpropan-1-one] |
| ++ (++ means 200 nM-1000 nM) | Cc1cc(NC2CCC(F)(F)CC2)nc(-n2cc(C)c(CF)n2)n1 [Compound 258, N-(4,4-difluorocyclohexyl)-2-(3-(fluoromethyl)-4-methyl-1H-pyrazol-1-yl)-6-methylpyrimidin-4-amine] |
| ++ (++ means 200 nM-1000 nM) | CC1(O)CN(c2cc(NC3CCC(F)(F)CC3)nc(-n3ccc(CF)n3)c2)C1 [Compound 326, 1-(2-((4,4-difluorocyclohexyl)amino)-6-(3-(fluoromethyl)-1H-pyrazol-1-yl)pyridin-4-yl)-3-methylazetidin-3-ol] |
| + (+ means >1 uM) | O=C(NCc1cc(NC2CCC(F)(F)CC2)nc(-n2ccc(CF)n2)n1)C1CCC1 [Compound 328, N-((6-((4,4-difluorocyclohexyl)amino)-2-(3-(fluoromethyl)-1H-pyrazol-1-yl)pyrimidin-4-yl)methyl)cyclobutanecarboxamide] |
| ++ (++ means 200 nM-1000 nM) | Cc1cc(C)n(-c2nc(CO)cc(NC3CCC(F)(F)C3)n2)n1 (centres unmarked) [Compound 192, (6-((3,3-difluorocyclopentyl)amino)-2-(3,5-dimethyl-1H-pyrazol-1-yl)pyrimidin-4-yl)methanol] |
| ++ (++ means 200 nM-1000 nM) | Cc1cc(NC2CCC(F)(F)CC2)nc(-n2ccc(C)n2)n1 [Compound 148, N-(4,4-difluorocyclohexyl)-6-methyl-2-(3-methyl-1H-pyrazol-1-yl)pyrimidin-4-amine] |
| + (+ means >1 uM) | CC(O)c1ccn(-c2nc(NC3CCC(F)(F)CC3)cc(OC3CN(C(=O)C(C)(C)C)C3)n2)n1 (centres unmarked) [Compound 315, 1-(3-((6-((4,4-difluorocyclohexyl)amino)-2-(3-(1-hydroxyethyl)-1H-pyrazol-1-yl)pyrimidin-4-yl)oxy)azetidin-1-yl)-2,2-dimethylpropan-1-one] |
| + (+ means >1 uM) | Cc1cc(NC2CCC(F)(F)CC2)nc(-n2nc(C3CC3)cc2C)n1 [Compound 221, 2-(3-cyclopropyl-5-methyl-1H-pyrazol-1-yl)-N-(4,4-difluorocyclohexyl)-6-methylpyrimidin-4-amine] |
| + (+ means >1 uM) | Cc1cc(C)n(-c2nc(CN(C)C)cc(NC3CCC(F)(F)CC3)n2)n1 [Compound 177, N-(4,4-difluorocyclohexyl)-2-(3,5-dimethyl-1H-pyrazol-1-yl)-6-((dimethylamino)methyl)pyrimidin-4-amine] |
| + (+ means >1 uM) | Cc1cn(-c2nc(NC3CCC(F)(F)CC3)cc(N3CCOCC3)n2)nc1C(F)F [Compound 282, N-(4,4-difluorocyclohexyl)-2-(3-(difluoromethyl)-4-methyl-1H-pyrazol-1-yl)-6-morpholinopyrimidin-4-amine] |

same assay, conditions: whole-cell patch-clamp, HEK293 cells expressing SK2 channels; concentration that increases the basal current by 100%

| SC100 (μM) | SMILES |
| --- | --- |
| + (+ means >1 uM) | Cc1cc(NC2CCC(F)(F)CC2)nc(-n2[nH]c(=O)cc2N)n1 [IN11140-007-P1, 5-amino-1-(4-((4,4-difluorocyclohexyl)amino)-6-methylpyrimidin-2-yl)-1,2-dihydro-3H-pyrazol-3-one] |
| ++ (++ means 200 nM-1000 nM) | Cc1cc(C)n(-c2cc3c(ncn3C3COC3)c(NC3CCC(F)(F)CC3)n2)n1 [NSSy5808, N-(4,4-difluorocyclohexyl)-6-(3,5-dimethyl-1H-pyrazol-1-yl)-1-(oxetan-3-yl)-1H-imidazo[4,5-c]pyridin-4-amine] |
| + (+ means >1 uM) | COC(C)c1cc(-n2ccc(C(F)(F)F)n2)nc(NC2CCC(F)(F)CC2)n1 (centres unmarked) [NSSy6613] |
| + (+ means >1 uM) | N#Cc1ccn(-c2nc(NC3CCC(F)(F)CC3)cc(N3CC4(COC4)C3)n2)n1 [NSSy5847] |
| ++ (++ means 200 nM-1000 nM) | FC1(F)CCC(Nc2cc(N3CCOCC3)nc(-n3ccc(C(F)(F)F)n3)n2)CC1 [IN11079-009-P1, N-(4,4-difluorocyclohexyl)-6-morpholino-2-(3-(trifluoromethyl)-1H-pyrazol-1-yl)pyrimidin-4-amine] |
| + (+ means >1 uM) | Cc1ccn(-c2nc(NC3CCC(F)(F)CC3)cc(C(C)(F)F)n2)n1 [IN10876-069-P1, N-(4,4-difluorocyclohexyl)-6-(1,1-difluoroethyl)-2-(3-methyl-1H-pyrazol-1-yl)pyrimidin-4-amine] |
| + (+ means >1 uM) | Cc1cc(C)n(-c2cc(C#N)nc(NC3CCC(F)(F)CC3)n2)n1 [NSSy6721, 2-((4,4-difluorocyclohexyl)amino)-6-(3,5-dimethyl-1H-pyrazol-1-yl)pyrimidine-4-carbonitrile] |
| ++ (++ means 200 nM-1000 nM) | COCCN(C)Cc1cc(NC2CCC(F)(F)CC2)nc(-n2ccc(C)n2)c1 [IN11039-017-P1] |
| ++ (++ means 200 nM-1000 nM) | Cc1csc(-c2nc(NC3CCC(F)CC3)cc(OC3CN(C(=O)C(C)C)C3)n2)n1 (centres unmarked) [NSSy5709] |
| ++ (++ means 200 nM-1000 nM) | Cc1nsc(-c2nc(NC3CCC(F)(F)CC3)cc(N3CCS(=O)(=O)CC3)n2)n1 [NSSy6125] |
| +++ (+++ means <200 nM) | Cc1csc(-c2nc(NC3CCC(F)(F)CC3)cc(OCc3cnco3)n2)n1 [IN11059-047-P1] |
| ++ (++ means 200 nM-1000 nM) | CC(O)c1cc(NC2CCC(F)(F)CC2)nc(-c2nc(C3CC3)cs2)n1 (centres unmarked) [IN11147-066-P1, 1-(2-(4-cyclopropylthiazol-2-yl)-6-((4,4-difluorocyclohexyl)amino)pyrimidin-4-yl) ethan-1-ol] |
| ++ (++ means 200 nM-1000 nM) | Cc1csc(-c2nc(NC3CCC(F)(F)CC3)cc(C(C)O)n2)n1 (centres unmarked) [IN10880-035-P1, 1-(6-((4,4-difluorocyclohexyl)amino)-2-(4-methylthiazol-2-yl)pyrimidin-4-yl) ethan-1-ol] |
| + (+ means >1 uM) | COCc1cc(-n2ccc(C(F)(F)F)n2)nc(NC2CCC(F)(F)CC2)n1 [NSSy6674, N-(4,4-difluorocyclohexyl)-4-(methoxymethyl)-6-(3-(trifluoromethyl)-1H-pyrazol-1-yl)pyrimidin-2-amine] |
| + (+ means >1 uM) | COCc1cc(NC2CCC(F)(F)CC2)nc(-n2ccc(C(F)(F)F)n2)n1 [IN11053-071-P1, N-(4,4-difluorocyclohexyl)-6-(methoxymethyl)-2-(3-(trifluoromethyl)-1H-pyrazol-1-yl)pyrimidin-4-amine] |
| ++ (++ means 200 nM-1000 nM) | CC(=O)NC1CCN(c2cc(NC3CCC(F)(F)CC3)nc(-c3nc(C)cs3)n2)CC1 [IN10880-032-P1] |
| ++ (++ means 200 nM-1000 nM) | Cc1csc(-c2cc(N)cc(NC3CCC(F)(F)CC3)n2)n1 [IN11063-087-P1, N2-(4,4-difluorocyclohexyl)-6-(4-methylthiazol-2-yl)pyridine-2,4-diamine] |
| ++ (++ means 200 nM-1000 nM) | Cc1ccn(-c2cc(C(O)Cc3cnnn3C)cc(NC3CCC(F)(F)CC3)n2)n1 (centres unmarked) [NSSy7065, 1-(2-((4,4-difluorocyclohexyl)amino)-6-(3-methyl-1H-pyrazol-1-yl)pyridin-4-yl)-2-(1-methyl-1H-1,2,3-triazol-5-yl) ethan-1-ol] |
| ++ (++ means 200 nM-1000 nM) | Cc1nn(-c2nc(NC3CCC(F)(F)CC3)cc(N3CCOCC3)n2)cc1F [IN11216-050-P1] |
| + (+ means >1 uM) | COc1nc(-c2nc(C)cs2)nc(NC2CCC(F)(F)CC2)c1OCc1cnco1 [IN11125-091-P1, N-(4,4-difluorocyclohexyl)-6-methoxy-2-(4-methylthiazol-2-yl)-5-(oxazol-5-ylmethoxy)pyrimidin-4-amine] |
| ++ (++ means 200 nM-1000 nM) | Cc1ccn(-c2cc(N3CCOCC3)cc(NC3CC=CCC3)n2)n1 (centres unmarked) [NSSy5759, N-(cyclohex-3-en-1-yl)-6-(3-methyl-1H-pyrazol-1-yl)-4-morpholino pyridin-2-amine] |
| + (+ means >1 uM) | Cc1cccc(-c2nccc(NC3CCC(F)(F)CC3)n2)n1 [IN11130-030-P1, N-(4,4-difluorocyclohexyl)-2-(6-methylpyridin-2-yl)pyrimidin-4-amine] |

| SMILES | SC100 (μM) |
| --- | --- |
| Cc1csc(-c2cc(OCc3cnnn3C)cc(NC3CCC(F)(F)CC3)n2)n1 [NSSy5717] | +++ (+++ means <200 nM) |
